The values below come from patent US4478826A, “Renin inhibitory peptides” (Merck & Co., Inc., priority 1982, dated 1984).

Square brackets hold non-standard residues; d marks the D form. Peptide text beside a SMILES is read from it. * marks the point of attachment. Sta = CC(C)C[C@H](N)[C@@H](O)CC(=O)O; Isobutyryl = CC(C)C(=O)*

The target of the experiment is T1, human renin (Homo sapiens, UniProt P00797).
T1 construct: Human plasma (lyophilized) was used as the source of human substrate and human renin; from tissue; host or cells: human plasma (lyophilized)
T1 sequence (P00797 67-406): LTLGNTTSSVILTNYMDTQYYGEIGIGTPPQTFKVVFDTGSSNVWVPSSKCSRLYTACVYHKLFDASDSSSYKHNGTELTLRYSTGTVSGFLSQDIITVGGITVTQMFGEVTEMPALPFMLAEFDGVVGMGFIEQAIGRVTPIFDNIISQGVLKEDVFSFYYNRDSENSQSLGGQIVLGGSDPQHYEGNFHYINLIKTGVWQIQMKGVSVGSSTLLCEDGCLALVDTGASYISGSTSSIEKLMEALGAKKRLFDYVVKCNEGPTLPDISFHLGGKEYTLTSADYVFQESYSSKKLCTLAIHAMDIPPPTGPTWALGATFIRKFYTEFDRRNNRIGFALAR
As to the kind of experiment: Human renin assay (radioimmunoassay of angiotensin I, human plasma). Format: biochemical. As to conditions: human plasma (lyophilized) as source of human substrate and human renin; read-out: I50 (M) Human renin. The source says:
This method employs a radioimmunoassay technique to measure the amount of angiotensin I product of renin cleavage of its substrate. Human plasma (lyophilized) was used as the source of human substrate and human renin. I50 values were obtained by plotting data at several inhibitor concentrations.

Regarding `CC(C)C[C@H](NC(=O)[C@H](Cc1c[nH]cn1)NC(=O)[C@H](Cc1ccccc1)NC(=O)[C@@H]1CCCN1C(=O)[C@H](Cc1c[nH]cn1)NC(=O)C(C)C)[C@@H](O)CC(=O)N[C@@H](C)C(=O)N[C@@H](Cc1ccccc1)C(N)=O` [IBU--His--Pro--Phe--His--Sta--Ala--Phe--NH2] (Isobutyryl-HPFH[Sta]AF-NH2), the IC50 is 4.2e-08 M.
